Measurements: patent US20260193238A1, “PHARMACEUTICAL COMPOUNDS AS PARP7 AND/OR PARP1 INHIBITORS” (Duke Street Bio Limited, priority 2022, published 2026)

Biological target: PARP1 (Homo sapiens, UniProt P09874)
Assay: PARP1 biochemical DELFIA assay (auto-PARylation)
Procedure: Prior to assay, wells were washed 3×5 min in coating wash buffer.
% data was fitted to a non-linear regression equation (log inhibitor vs response-variable slope 4-parameters) to obtain IC50 values.

Sequence of PARP1 (P09874 whole entry): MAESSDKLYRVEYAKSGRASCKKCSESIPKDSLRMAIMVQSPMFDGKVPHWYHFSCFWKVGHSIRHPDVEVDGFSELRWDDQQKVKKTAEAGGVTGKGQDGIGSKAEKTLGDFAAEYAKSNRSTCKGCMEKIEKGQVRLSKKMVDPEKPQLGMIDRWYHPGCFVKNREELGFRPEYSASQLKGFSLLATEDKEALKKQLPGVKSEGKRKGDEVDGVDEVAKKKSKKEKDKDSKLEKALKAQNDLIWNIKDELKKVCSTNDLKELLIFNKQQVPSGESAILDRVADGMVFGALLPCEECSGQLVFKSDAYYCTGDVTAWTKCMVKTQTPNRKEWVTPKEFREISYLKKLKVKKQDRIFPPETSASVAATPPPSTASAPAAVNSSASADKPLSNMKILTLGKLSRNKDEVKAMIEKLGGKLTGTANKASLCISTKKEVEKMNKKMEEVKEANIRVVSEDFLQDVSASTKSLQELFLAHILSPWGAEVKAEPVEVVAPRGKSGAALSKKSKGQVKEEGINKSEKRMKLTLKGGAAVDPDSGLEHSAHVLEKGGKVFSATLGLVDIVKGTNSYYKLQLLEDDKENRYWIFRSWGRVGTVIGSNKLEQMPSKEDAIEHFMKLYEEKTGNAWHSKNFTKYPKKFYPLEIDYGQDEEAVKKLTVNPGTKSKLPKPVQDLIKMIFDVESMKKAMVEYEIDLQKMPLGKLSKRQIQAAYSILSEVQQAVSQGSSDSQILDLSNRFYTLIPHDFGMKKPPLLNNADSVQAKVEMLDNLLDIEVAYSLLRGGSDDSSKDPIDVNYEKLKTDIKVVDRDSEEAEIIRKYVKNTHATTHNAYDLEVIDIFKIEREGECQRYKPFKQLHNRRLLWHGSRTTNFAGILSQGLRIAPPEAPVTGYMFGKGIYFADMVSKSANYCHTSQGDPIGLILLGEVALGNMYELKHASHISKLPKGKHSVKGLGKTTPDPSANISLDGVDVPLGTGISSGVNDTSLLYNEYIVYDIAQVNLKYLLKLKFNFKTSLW

Structure (SMILES): COC1CC(c2cc(C(F)(F)F)c(=O)[nH]n2)N(CC(=O)N2CCN(c3ncc(C(F)(F)F)cn3)CC2)C1 (single isomer, unassigned) [Compound 138trans2, 6-(4-methoxy-1-(2-oxo-2-(4-(5-(trifluoromethyl)pyrimidin-2-yl)piperazin-1-yl)ethyl)pyrrolidin-2-yl)-4-(trifluoromethyl)pyridazin-3(2H)-one]
- IC50 (Table 1A): > 10000 nM

Structure (SMILES): N#Cc1cc(C2CCCN2CC(=O)N2CCN(c3nc4ccc(F)cc4o3)CC2)n[nH]c1=O (single isomer, unassigned) [Compound 111a]
- IC50 (Table 1A): 10 to 100 nM

Structure (SMILES): O=C(CN1CCCC1c1c[nH]c(=O)c(C(F)(F)F)c1)N1CCN(c2ncc(Cl)cn2)CC1 (single isomer, unassigned) [Compound 74a]
- IC50 (Table 1A): 10 to 100 nM

Structure (SMILES): O=C(CN1CCCC1c1c[nH]c(=O)c(Cl)c1)N1CCN(c2ncc(C(F)(F)F)cn2)CC1 (single isomer, unassigned) [Compound 78b, 3-chloro-5-(1-(2-oxo-2-(4-(5-(trifluoromethyl)pyrimidin-2-yl)piperazin-1-yl)ethyl)pyrrolidin-2-yl)pyridin-2(1H)-one]
- IC50 (Table 1A): > 10000 nM

Structure (SMILES): N#Cc1ccc(N2CCN(C(=O)CN3CCCC3c3cc(C(F)(F)F)c(=O)[nH]n3)CC2)cc1 (single isomer, unassigned) [Compound 71b]
- IC50 (Table 1A): 10 to 100 nM

Structure (SMILES): O=C(CN1CCCC1c1cc(C(F)(F)F)c(=O)[nH]n1)N1CCN(c2ncc(F)cn2)CC1 (single isomer, unassigned) [Compound 43b]
- IC50 (Table 1A): 1000 to 10000 nM

Structure (SMILES): O=C(CN1CCN(c2ncc(C(F)(F)F)cn2)CC1)N1CCCC1c1c[nH]c(=O)c(C(F)(F)F)c1 (single isomer, unassigned) [Compound 63a]
- IC50 (Table 1A): 10 to 100 nM

Structure (SMILES): O=C(CN1CCCC1c1cc(C(F)(F)F)c(=O)[nH]n1)N1CCC(c2ncc(C(F)(F)F)cn2)CC1 (single isomer, unassigned) [Compound 70a]
- IC50 (Table 1A): 1000 to 10000 nM

Structure (SMILES): O=C(CN1CCCC1c1cc(C(F)(F)F)c(=O)[nH]n1)N1CCN(c2ccc(Cl)cn2)CC1 (single isomer, unassigned) [Compound 41a]
- IC50 (Table 1A): 10 to 100 nM

Structure (SMILES): N#Cc1ccc(N2CCN(C(=O)CN3CCCC3c3c[nH]c(=O)c(C(F)(F)F)c3)CC2)nc1 (single isomer, unassigned) [Compound 77b]
- IC50 (Table 1A): 100 to 1000 nM

Structure (SMILES): N#Cc1ccc(N2CCN(C(=O)CN3CCCC3c3c[nH]c(=O)c(C(F)(F)F)c3)CC2)nc1 (single isomer, unassigned) [Compound 77a]
- IC50 (Table 1A): 1000 to 10000 nM

Structure (SMILES): O=C(CN1CCCC1c1cc(C(F)(F)F)c(=O)[nH]n1)C1CCN(c2ncc(C(F)(F)F)cn2)CC1 (single isomer, unassigned) [Compound 75b]
- IC50 (Table 1A): > 10000 nM

Structure (SMILES): N#Cc1ccc(N2CCN(C(=O)CN3CCCC3c3cc(C(F)(F)F)c(=O)[nH]n3)CC2)nc1 (racemic) [Compound 47rac]
- IC50 (Table 1A): 10 to 100 nM

Structure (SMILES): CNC(=O)c1ccc(N2CCN(C(=O)CCN3CCC(c4cc(C(F)(F)F)c(=O)[nH]n4)CC3)CC2)cn1 [Compound 59]
- IC50 (Table 1A): 10 to 100 nM

Structure (SMILES): O=C(CN1CCCC1c1cc(C(F)(F)F)c(=O)[nH]n1)N1CCN(c2ncc(F)cc2C(F)(F)F)CC1 (single isomer, unassigned) [Compound 120b]
- IC50 (Table 1A): > 10000 nM

Structure (SMILES): O=C(CCN1CCCC(c2cc(C(F)(F)F)c(=O)[nH]n2)C1)N1CCN(c2ccc(F)cn2)CC1 (single isomer, unassigned) [Compound 8a]
- IC50 (Table 1): 100 to 1000 nM

Structure (SMILES): CN(c1ncc(C(F)(F)F)cn1)C1CCN(C(=O)CN2CCCC2c2cc(C(F)(F)F)c(=O)[nH]n2)CC1 (single isomer, unassigned) [Compound 107a]
- IC50 (Table 1A): 1000 to 10000 nM

Structure (SMILES): O=C(CN1CCCC1c1cc(C(F)(F)F)c(=O)[nH]n1)N1CCN(c2ccc(OC(F)(F)F)cn2)CC1 (single isomer, unassigned) [Compound 81b]
- IC50 (Table 1A): 10 to 100 nM

Structure (SMILES): O=C(CN1CCCC1c1c[nH]c(=O)c(C(F)(F)F)n1)N1CCN(c2ncc(C(F)(F)F)cn2)CC1 (single isomer, unassigned) [Compound 84b, 5-(1-(2-oxo-2-(4-(5-(trifluoromethyl)pyrimidin-2-yl)piperazin-1-yl)ethyl)pyrrolidin-2-yl)-3-(trifluoromethyl)pyrazin-2(1H)-one]
- IC50 (Table 1A): 1000 to 10000 nM

Structure (SMILES): O=C(CN1CCCCC1c1cc(C(F)(F)F)c(=O)[nH]n1)N1CCN(c2ncc(C(F)(F)F)cn2)CC1 (single isomer, unassigned) [Compound 66a]
- IC50 (Table 1A): 100 to 1000 nM

Structure (SMILES): O=C(CN1CCCC1c1cc(C(F)(F)F)c(=O)[nH]n1)N1CCN(c2ccc(C(F)F)cn2)CC1 (single isomer, unassigned) [Compound 126b]
- IC50 (Table 1A): 1000 to 10000 nM

Structure (SMILES): O=C(CN1CCCC1c1cc(C(F)(F)F)c(=O)[nH]n1)N1CCN(c2ccc(F)cn2)CC1 (single isomer, unassigned) [Compound 46a]
- IC50 (Table 1A): 10 to 100 nM

Structure (SMILES): O=C(CN1CCCC(c2cc(C(F)(F)F)c(=O)[nH]n2)C1)N1CCN(c2ncc(C(F)(F)F)cn2)CC1 (single isomer, unassigned) [Compound 14b]
- IC50 (Table 1): 100 to 1000 nM

Structure (SMILES): O=C(CN1CCCC1c1cc(C(F)(F)F)c(=O)[nH]n1)N1CCN(c2ncc(OC(F)(F)F)cn2)CC1 (single isomer, unassigned) [Compound 72b]
- IC50 (Table 1A): ≤ 10 nM

Structure (SMILES): COC1CC(c2cc(C(F)(F)F)c(=O)[nH]n2)N(CC(=O)N2CCN(c3ncc(C(F)(F)F)cn3)CC2)C1 (single isomer, unassigned) [Compound 138trans1, 6-(4-methoxy-1-(2-oxo-2-(4-(5-(trifluoromethyl)pyrimidin-2-yl)piperazin-1-yl)ethyl)pyrrolidin-2-yl)-4-(trifluoromethyl)pyridazin-3(2H)-one]
- IC50 (Table 1A): 100 to 1000 nM

Structure (SMILES): O=C(CN1CCCC1c1cc(C2CC2)c(=O)[nH]n1)N1CCN(c2ncc(C(F)(F)F)cn2)CC1 (racemic) [Compound 65rac]
- IC50 (Table 1A): 10 to 100 nM

Structure (SMILES): O=C(CCN1CCCC(c2cc(C(F)(F)F)c(=O)[nH]n2)C1)N1CCN(c2ncc(OC(F)(F)F)cn2)CC1 (single isomer, unassigned) [Compound 13a]
- IC50 (Table 1): 100 to 1000 nM

Structure (SMILES): CNC(=O)c1ccc(N2CCN(C(=O)CN3CCC3c3cc(C(F)(F)F)c(=O)[nH]n3)CC2)cn1 (racemic) [Compound 53rac]
- IC50 (Table 1A): 100 to 1000 nM

Structure (SMILES): O=C(CN1CCCC1c1cc(C(F)(F)F)c(=O)[nH]n1)N1CC2(C1)CN(c1ncc(C(F)(F)F)cn1)C2 (single isomer, unassigned) [Compound 106b]
- IC50 (Table 1A): 1000 to 10000 nM

Structure (SMILES): N#Cc1ccc2nc(N3CCN(C(=O)CN4CCCC4c4cc(C(F)(F)F)c(=O)[nH]n4)CC3)oc2c1 (single isomer, unassigned) [Compound 96b]
- IC50 (Table 1A): ≤ 10 nM

Structure (SMILES): O=C(CCN1CCCC(c2c[nH]c(=O)c(C(F)(F)F)c2)C1)N1CCN(c2ncc(C(F)(F)F)cn2)CC1 (single isomer, unassigned) [Compound 25a]
- IC50 (Table 1): 10 to 100 nM

Structure (SMILES): CNC(=O)c1ccc(N2CCN(C(=O)CCN3CCCC3c3c[nH]c(=O)c(C(F)(F)F)c3)CC2)cn1 (single isomer, unassigned) [Compound 73b]
- IC50 (Table 1A): 1000 to 10000 nM

Structure (SMILES): O=C(CN1CCCC1c1cc(C(F)(F)F)c(=O)[nH]n1)N1CCN(c2nc3ccc(F)cc3o2)CC1 (single isomer, unassigned) [Compound 95b]
- IC50 (Table 1A): 1000 to 10000 nM

Structure (SMILES): CCc1cc(C2CCCN(CCC(=O)N3CCN(c4ncc(C(F)(F)F)cn4)CC3)C2)n[nH]c1=O (single isomer, unassigned) [Compound 6a, 4-ethyl-6-(1-(3-oxo-3-(4-(5-(trifluoromethyl)pyrimidin-2-yl)piperazin-1-yl)propyl)piperidin-3-yl)pyridazin-3(2H)-one]
- IC50 (Table 1): 10 to 100 nM

Structure (SMILES): O=C(CCC1CCN(c2ncc(C(F)(F)F)cn2)CC1)N1CCCC(c2cc(C(F)(F)F)c(=O)[nH]n2)C1 (single isomer, unassigned) [Compound 4a]
- IC50 (Table 1): 100 to 1000 nM

Structure (SMILES): N#Cc1cc(C2CCCN2CC(=O)N2CCN(c3ncc(C(F)(F)F)cn3)CC2)n[nH]c1=O (single isomer, unassigned) [Compound 98a, 3-oxo-6-(1-(2-oxo-2-(4-(5-(trifluoromethyl)pyrimidin-2-yl)piperazin-1-yl)ethyl)pyrrolidin-2-yl)-2,3-dihydropyridazine-4-carbonitrile]
- IC50 (Table 1A): 100 to 1000 nM

Structure (SMILES): CCc1cc(C2CCCN2CC(=O)N2CCN(c3ncc(C(F)(F)F)cn3)CC2)n[nH]c1=O (single isomer, unassigned) [Compound 40b]
- IC50 (Table 1A): 1000 to 10000 nM

Structure (SMILES): N#Cc1cc(C2CCCN2CC(=O)N2CCN(c3nc4cc(Cl)ccc4o3)CC2)n[nH]c1=O (single isomer, unassigned) [Compound 121a]
- IC50 (Table 1A): 100 to 1000 nM

Structure (SMILES): O=C(CN1CCCC1c1c[nH]c(=O)c(C(F)(F)F)c1)N1CCN(c2ncc(C(F)(F)F)cn2)CC1 (single isomer, unassigned) [Compound 60b, 5-(1-(2-oxo-2-(4-(5-(trifluoromethyl)pyrimidin-2-yl)piperazin-1-yl)ethyl)pyrrolidin-2-yl)-3-(trifluoromethyl)pyridin-2(1H)-one]
- IC50 (Table 1A): 100 to 1000 nM

Structure (SMILES): N#Cc1cnc(N2CCN(C(=O)CN3CCCC3c3cc(C(F)(F)F)c(=O)[nH]n3)CC2)s1 (racemic) [Compound 44rac]
- IC50 (Table 1A): 10 to 100 nM

Structure (SMILES): O=C(CN1CCCC1c1cc(C(F)(F)F)c(=O)[nH]n1)N1CCN(c2ncc(Cl)cn2)CC1 (single isomer, unassigned) [Compound 35a]
- IC50 (Table 1A): 10 to 100 nM

Structure (SMILES): O=C(CCC1CCN(c2ncc(C(F)(F)F)cn2)CC1)N1CCCC(c2cc(C(F)(F)F)c(=O)[nH]n2)C1 (single isomer, unassigned) [Compound 4b]
- IC50 (Table 1): 100 to 1000 nM

Structure (SMILES): N#Cc1cc(C2CCCN2CC(=O)N2CCN(c3nc4cc(F)ccc4o3)CC2)n[nH]c1=O (single isomer, unassigned) [Compound 149b]
- IC50 (Table 1A): > 10000 nM

Structure (SMILES): O=C(CN1CCCC1c1cc(C(F)(F)F)c(=O)[nH]n1)N1CCN(c2ncc(C3CC3)cn2)CC1 (single isomer, unassigned) [Compound 69b]
- IC50 (Table 1A): 1000 to 10000 nM

Structure (SMILES): O=C(CCN1CCCC(c2cc(C(F)(F)F)c(=O)[nH]n2)C1)N1CCN(c2ccc(Cl)cn2)CC1 (single isomer, unassigned) [Compound 15b]
- IC50 (Table 1): 100 to 1000 nM

Structure (SMILES): O=C(CCN1CCCC(c2cc(C(F)(F)F)c(=O)[nH]n2)C1)N1CCN(c2ncc(C(F)(F)F)s2)CC1 (single isomer, unassigned) [Compound 27b]
- IC50 (Table 1): 10 to 100 nM

Structure (SMILES): CCc1[nH]c(=O)c(C(F)(F)F)cc1C1CCCN1CC(=O)N1CCN(c2ncc(C(F)(F)F)cn2)CC1 (single isomer, unassigned) [Compound 105b]
- IC50 (Table 1A): 1000 to 10000 nM

Structure (SMILES): N#Cc1cc(C2CCCN2CC(=O)N2CC(Nc3ncc(C(F)(F)F)cn3)C2)n[nH]c1=O (single isomer, unassigned) [Compound 123a]
- IC50 (Table 1A): 10 to 100 nM
